“And” between values parts separate entries of the source, which are not always exact repeats. Equal values may be shown once. Where a name gives a salt, the structure may show the parent alone.
How the values were obtained:
Type in all cases: physicochemical
[1] = Dynamic vapor sorption (DVS) hygroscopicity test; settings: 25° C. and 80% RH
Description: In the present disclosure, the DVS test parameters are set as follows: [table]

[2] = Polymorph screening test, suspension method (crystal form by XRPD after stirring in solvent); settings: for Crystal form (XRPD) / Crystal form (XRPD)/85° C.: mesylate screening, 3 days
Procedure: (or 50° C.) for 3 days in the dark and centrifuged to remove the supernatant; the resulting precipitate was dried under vacuum (25° C., −0.1 MPa); and the resulting solid was collected and subjected to the XRPD test. The results are as follows:
(or 50° C./80° C.) for 3 days in the dark and centrifuged to remove the supernatant; and the resulting precipitate was dried under vacuum (25° C., −0.1 MPa).
(or 50° C.) for 3 days in the dark and centrifuged to remove the supernatant; and the resulting precipitate was dried under vacuum (25° C., −0.1 MPa).

[3] = Polymorph screening test, diffusion method (crystal form by XRPD); settings: mesylate screening, diffusion at room temperature
[4] = Stability of crystal forms under stability test conditions (appearance, XRPD, HPLC)
Procedure: The samples were placed under the stability conditions shown in the following table, sampling was performed at the corresponding time points, and the samples were subjected to appearance and XRPD tests. […] The stability results obtained are recorded in the following table. […] The samples were placed under the stability test conditions shown in the following table, sampling was performed at different time points, and the samples were subjected to the XRPD test. […] The samples were placed in an open state under the stability test conditions of 40° C./75% RH and 90% RH; and the samples were placed in a closed state at 60° C. in a light box (the test samples in the dark were placed in the same manner as the illumination test samples, and the treatment was performed in the dark). Sampling was performed at different time points, and the samples were subjected to the XRPD test. […] The samples were placed under the stability conditions shown in the following table, sampling was performed at the corresponding time points, and the samples were subjected to appearance and XRPD tests. […] The stability results obtained are recorded in the following table.

[5] = Solubility of mesylate crystal form A in buffers with different pH values at 37° C.
Procedure: Suspension states at 15 min, 2 h, 4 h, and 24 h were recorded; and different sample solutions at 15 min, 2 h, 4 h, and 24 h were collected and added to 1.5 mL centrifuge tubes. The suspensions were centrifuged at 12000 rpm for 2 min to obtain supernatants, and the supernatants were subjected to 2-fold dilution to obtain the sample solutions (the solutions were subjected to 10-fold dilution if the samples were dissolved completely). The residual substrates were centrifuged and subjected to the XRPD test.

[6] = Polymorph screening test, suspension method (crystal form by XRPD after stirring in solvent); settings: mesylate screening, suspension in Toluene, 3 days

## Cc1cc(Nc2ncc(Cl)c(Nc3ccccc3S(=O)(=O)C(C)C)n2)c(OC(C)C)cc1C1=CCN(C2CCOCC2)CC1 [one equivalent of mesylate crystal form A]
[1]
  hygroscopic weight gain (DVS curve): 0.31±0.005% and 0.31%
[2]; ethanol, isopropanol, ethyl acetate, isopropyl acetate, methyl tert-butyl ether, tetrahydrofuran, N-methylpyrrolidone, methyl acetate, 2-methyltetrahydrofuran, cyclohexane, n-hexane, toluene, or n-heptane
  stability of crystal form in solvent, suspension method: relatively good stability
[2]; ethanol, isopropanol, ethyl acetate, isopropyl acetate, methyl tert-butyl ether, tetrahydrofuran, N-methylpyrrolidone, methyl acetate, 2-methyltetrahydrofuran, cyclohexane, n-hexane, toluene, or n-heptane at 25-50° C.
  crystal form when stirred in solvent: remained stable
[2]; suspension in 1,4-Dioxane, 25° C.
  Crystal form (XRPD): Crystal form A
[2]; suspension in 1,4-Dioxane, 50° C.
  Crystal form (XRPD): Crystal form E
[2]; suspension in Acetone-water 1:1, 25° C.
  Crystal form (XRPD): Clear solution
[2]; suspension in Acetone-water 1:1, 50° C.
  Crystal form (XRPD): Clear solution
[2]; suspension in Acetonitrile-water 1:1, 25° C.
  Crystal form (XRPD): Clear solution
[2]; suspension in Acetonitrile-water 1:1, 50° C.
  Crystal form (XRPD): Clear solution
[2]; suspension in Dichloromethane, 25° C.
  Crystal form (XRPD): No solid sample
[2]; suspension in Dichloromethane, 50° C.
  Crystal form (XRPD): No solid sample
[2]; suspension in Dichloromethane/acetone (v/v, 1:1), 25° C.
  Crystal form (XRPD): Crystal form A
[2]; suspension in Dichloromethane/acetone (v/v, 1:1), 50° C.
  Crystal form (XRPD): No solid sample
[2]; suspension in Dichloromethane/methanol (v/v, 1:1), 25° C.
  Crystal form (XRPD): Clear solution
[2]; suspension in Dichloromethane/methanol (v/v, 1:1), 50° C.
  Crystal form (XRPD): No solid sample
[2]; suspension in Dioxane
  Crystal form (XRPD)/85° C.: Crystal form A
[2]; suspension in MIBK
  Crystal form (XRPD)/85° C.: Crystal form A
[2]; suspension in Methanol-water 1:1, 25° C.
  Crystal form (XRPD): Crystal form B
[2]; suspension in Methanol-water 1:1, 50° C.
  Crystal form (XRPD): Clear solution
[2]; suspension in Methyl tert-butyl ether, 25° C.
  Crystal form (XRPD): Crystal form A
[2]; suspension in Methyl tert-butyl ether, 50° C.
  Crystal form (XRPD): Crystal form A
[2]; suspension in Tetrahydrofuran, 25° C.
  Crystal form (XRPD): Crystal form A
[2]; suspension in Tetrahydrofuran, 50° C.
  Crystal form (XRPD): Crystal form A
[2]; suspension in Toluene, 25° C.
  Crystal form (XRPD): Crystal form A
[2]; suspension in Toluene, 50° C.
  Crystal form (XRPD): Crystal form A
[2]; suspension in Water, 25° C.
  Crystal form (XRPD): Crystal form B
[2]; suspension in Water, 50° C.
  Crystal form (XRPD): Crystal form B
[2]; suspension in n-Heptane, 25° C.
  Crystal form (XRPD): Crystal form A
[2]; suspension in n-Heptane, 50° C.
  Crystal form (XRPD): Crystal form A
[2]; suspension in n-Heptane
  Crystal form (XRPD)/85° C.: Crystal form A
[2]; toluene or n-heptane at 25-85° C.
  crystal form when stirred in solvent: remained stable
[3]; good solvent Dichloromethane, poor solvent Acetone
  Crystal form (XRPD): Crystal form A
[3]; good solvent Dichloromethane, poor solvent Acetonitrile
  Crystal form (XRPD): Crystal forms A + B
[3]; good solvent Dichloromethane, poor solvent Ethanol
  Crystal form (XRPD): Crystal form A
[3]; good solvent Dichloromethane, poor solvent Ethyl acetate
  Crystal form (XRPD): Crystal forms A + B
[3]; good solvent Dichloromethane, poor solvent Tetrahydrofuran
  Crystal form (XRPD): Crystal forms A + B
[3]; good solvent Dimethyl sulfoxide, poor solvent Acetone
  Crystal form (XRPD): Clear solution
[3]; good solvent Dimethyl sulfoxide, poor solvent Acetonitrile
  Crystal form (XRPD): Clear solution
[3]; good solvent Dimethyl sulfoxide, poor solvent Ethanol
  Crystal form (XRPD): Clear solution
[3]; good solvent Dimethyl sulfoxide, poor solvent Ethyl acetate
  Crystal form (XRPD): Clear solution
[3]; good solvent Dimethyl sulfoxide, poor solvent Tetrahydrofuran
  Crystal form (XRPD): Clear solution
[3]; good solvent Methanol, poor solvent Acetone
  Crystal form (XRPD): Clear solution
[3]; good solvent Methanol, poor solvent Acetonitrile
  Crystal form (XRPD): Clear solution
[3]; good solvent Methanol, poor solvent Ethyl acetate
  Crystal form (XRPD): Clear solution
[3]; good solvent Methanol, poor solvent Tetrahydrofuran
  Crystal form (XRPD): Clear solution
[3]; good solvent N,N-Dimethylformamide, poor solvent Acetone
  Crystal form (XRPD): Clear solution
[3]; good solvent N,N-Dimethylformamide, poor solvent Acetonitrile
  Crystal form (XRPD): Clear solution
[3]; good solvent N,N-Dimethylformamide, poor solvent Ethanol
  Crystal form (XRPD): Clear solution
[3]; good solvent N,N-Dimethylformamide, poor solvent Ethyl acetate
  Crystal form (XRPD): Clear solution
[3]; good solvent N,N-Dimethylformamide, poor solvent Tetrahydrofuran
  Crystal form (XRPD): Clear solution
[4]; 25° C./60% RH, 1 month
  Crystal form result by XRPD test: Crystal form A
[4]; 25° C./60% RH, 2 months
  Crystal form result by XRPD test: Crystal form A
[4]; 25° C./60% RH, 3 months
  Crystal form result by XRPD test: Crystal form A
[4]; 25° C./60% RH, 6 months
  Crystal form result by XRPD test: Crystal form A
[4]; 25° C./60% RH, 5 days
  Crystal form result by XRPD test: Crystal form A
[4]; 25° C./60% RH, 10 days
  Crystal form result by XRPD test: Crystal form A
[4]; 40° C./75% RH, 1 month
  Crystal form result by XRPD test: Crystal form A
[4]; 40° C./75% RH, 2 months
  Crystal form result by XRPD test: Crystal form A
[4]; 40° C./75% RH, 3 months
  Crystal form result by XRPD test: Crystal form A
[4]; 40° C./75% RH, 6 months
  Crystal form result by XRPD test: Crystal form A
[4]; 40° C./75% RH, 5 days
  Crystal form result by XRPD test: Crystal form A
[4]; 40° C./75% RH, 10 days
  Crystal form result by XRPD test: Crystal form A
[4]; 60° C., 1 month
  Crystal form result by XRPD test: Crystal form A
[4]; 60° C., 2 months
  Crystal form result by XRPD test: Crystal form A
[4]; 60° C., 3 months
  Crystal form result by XRPD test: Crystal form A
[4]; 60° C., 6 months
  Crystal form result by XRPD test: Crystal form A
[4]; 60° C., 5 days
  Crystal form result by XRPD test: Crystal form A
[4]; 60° C., 10 days
  Crystal form result by XRPD test: Crystal form A
[4]; 90% RH, 1 month
  Crystal form result by XRPD test: Crystal form A
[4]; 90% RH, 2 months
  Crystal form result by XRPD test: Crystal form A
[4]; 90% RH, 3 months
  Crystal form result by XRPD test: Crystal form A
[4]; 90% RH, 5 days
  Crystal form result by XRPD test: Crystal form A
[4]; 90% RH, 10 days
  Crystal form result by XRPD test: Crystal form A
[5]; 0.01N hydrochloric acid, 15 min
  Concentration: >6
[5]; 0.01N hydrochloric acid, 2 h
  Concentration: >6
[5]; 0.01N hydrochloric acid, 4 h
  Concentration: >6
[5]; 0.01N hydrochloric acid, 24 h
  Concentration: >6
[5]; Pure water, 15 min
  Concentration: 0.747
[5]; Pure water, 2 h
  Concentration: 4.930
[5]; Pure water, 4 h
  Concentration: 4.657
[5]; Pure water, 24 h
  Concentration: 4.567
[5]; pH 1.2, 15 min
  Concentration: >6
[5]; pH 1.2, 2 h
  Concentration: >6
[5]; pH 1.2, 4 h
  Concentration: >6
[5]; pH 1.2, 24 h
  Concentration: >6
[5]; pH 4.5, 15 min
  Concentration: >6
[5]; pH 4.5, 2 h
  Concentration: 0.044
[5]; pH 4.5, 4 h
  Concentration: 0.046
[5]; pH 6.8, 15 min
  Concentration: 0.003
[5]; pH 6.8, 2 h
  Concentration: 0.005
[5]; pH 6.8, 4 h
  Concentration: 0.005
[5]; pH 6.8, 24 h
  Concentration: 0.015
[6]
  Crystal form (XRPD)/85° C.: Crystal form A

From patent US20260217692A1 (Ascentage Pharma (Suzhou) Co., Ltd., priority 2023, published 2026)
